Where two headings read alike, the source gives them in different places.
How the values were obtained:
Cathepsin D (Cat D) = Cathepsin D (Cat D) (Homo sapiens, UniProt P07339); assay: In vitro enzymatic Cathepsin D (Cat D) FRET assay; format: biochemical
Method in brief: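 Recombinant CHO-expressed enzyme (9 nM) pre-incubated 1 h with serially diluted inhibitor in 0.05 M citrate pH 3.5, 10% DMSO final, 5 mM CHAPS. Reaction started with 20 nM FRET peptide substrate, run 1 h, stopped with Tris to neutral pH; fluorescence read at ex 500/em 580 nm.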

[1] = target: Beta Secretase enzyme (BACE) (Homo sapiens, UniProt P56817); assay: In vitro enzymatic BACE FRET assay; format: biochemical; conditions: read-out: BACE1 FRET assay IC50
Sequence of Beta Secretase enzyme (BACE) (P56817 46-501): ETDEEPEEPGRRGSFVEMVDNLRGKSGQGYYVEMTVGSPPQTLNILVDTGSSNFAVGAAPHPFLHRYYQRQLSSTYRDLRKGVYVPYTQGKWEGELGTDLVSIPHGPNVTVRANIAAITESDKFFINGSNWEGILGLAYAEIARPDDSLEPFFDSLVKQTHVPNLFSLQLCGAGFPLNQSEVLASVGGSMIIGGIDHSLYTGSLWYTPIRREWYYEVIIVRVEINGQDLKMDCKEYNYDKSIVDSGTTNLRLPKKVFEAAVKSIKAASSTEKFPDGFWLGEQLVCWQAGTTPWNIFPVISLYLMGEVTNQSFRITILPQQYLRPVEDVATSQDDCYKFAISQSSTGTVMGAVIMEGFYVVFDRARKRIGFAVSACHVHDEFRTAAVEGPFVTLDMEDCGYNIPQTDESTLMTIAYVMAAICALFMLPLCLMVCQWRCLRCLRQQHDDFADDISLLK
Method in brief: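 Enzyme (0.2 nM) pre-incubated 1 h with serially diluted inhibitors in 0.05 M acetate pH 4.2, 10% DMSO, 100 uM genapol. Reaction started with 50 nM fluorophore/quencher peptide FRET substrate, run 1 h, stopped with Tris to neutral pH. Fluorescence read at excitation 488 nm, […].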

Abeta 40 = assay: In vivo inhibition of beta-secretase: Abeta 40 reduction in CSF and brain of the rat; conditions: 10 mpk (unless otherwise noted), after 4 hrs
Source text: In Vivo Inhibition of Beta-Secretase
Several animal models, including mouse, rat, dog, and monkey, may be used to screen for inhibition of beta-secretase activity in vivo following administration of a test compound sample. Animals used in this invention can be wild type, transgenic, or gene knockout animals. For example, the Tg2576 mouse model, prepared and conducted as described in Hsiao et al., 1996, Science 274, 99-102, and other non-transgenic or gene knockout animals are useful to analyze in vivo inhibition of Amyloid beta peptide (Abeta) production in the presence of inhibitory test compounds. Generally, 2 to 18 month old Tg2576 mice, gene knockout mice or non-transgenic animals are administered test compounds formulated in vehicles, such as cyclodextran, phosphate buffers, hydroxypropyl methylcellulose or other suitable vehicles. One to twenty-four hours following the administration of compound, animals are sacrificed, and brains as well as cerebrospinal fluid (CSF) and plasma are removed for analysis of A-beta levels and drug or test compound concentrations (Dovey et al., 2001, Journal of Neurochemistry, 76, 173-181) Beginning at time 0, animals are administered by oral gavage, or other means of delivery such as intravenous injection, an inhibitory test compound of up to 100 mg/kg in a standard, conventional formulation, such as 2% hydroxypropyl methylcellulose, 1% Tween80. A separate group of animals receive 2% hydroxypropyl methylcellulose, 1% Tween80 alone, containing no test compound, and serve as a vehicle-control group. At the end of the test period, animals are sacrificed and brain tissues, plasma or cerebrospinal fluid are collected. Brains are either homogenized in 10 volumes (w/v) of 0.2% diethylamine (DEA) in 50 mM NaCl (Best et al., 2005, Journal of Pharmacology and Experimental Therapeutics, 313, 902-908), or in 10 volumes of 0.5% TritonX-100 in Tris-buffered saline (pH at about 7.6). Homogenates are centrifuged at 355,000 g, 4° C. for 30 minutes. CSF or brain supernatants are then analyzed for the presence of A-beta peptide by specific sandwich ELISA assays based on ECL (Electrochemiluminescence) technology. For example, rat Abeta40 is measured using biotinylated-4G8 (Signet) as a capture antibody and Fab40 (an in-house antibody specific to the C-terminal of Abeta40) as a detection antibody. For example, 4 hours after administration of 30 mg/kg oral dose of the test compound in 2% hydroxypropyl methylcellulose, 1% Tween80 (pH2.2) to 200 g male Sprague Dawley rats, amyloid beta peptide levels are measured for reduction by X % and Y % in cerebrospinal fluid and brain, respectively, when compared to the levels measured in the vehicle-treated or control […].
Actual vehicles used: Oral: 2% HPMC, 1% Tween80, pH 2.2
• IV: 5% EtOH, 45% Propylene Glycol in 5% Dextrose
The compounds of the invention may be shown to reduce the formation and/or deposition of amyloid beta peptide in the cerebrospinal fluid (CSF) as well as in the brain of a mouse or rat at either 3 mpk, 10 mpk or 30 mpk (mpk=mg compound per kg weight of the animal) dosing concentrations after 4 hrs.

[2] = test system: Aβ 40 in conditioned medium of cells stably expressing Amyloid Precursor Protein (APP); assay: In vitro BACE cell-based assay (Aβ 40 sandwich ELISA); conditions: Homo sapiens, HEK293
Method in brief: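 APP-expressing cells, 24 h pre-culture in DMEM/10% FBS, treated 24 h with 10-point compound dilutions from 100 or 10 μM top, 0.1% DMSO final. Secreted Aβ40 quantified by sandwich ELISA (pAb40 capture, biotinylated 6E10 detection, europium TRF); IC50 from percent inhibition versus concentration.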

[3] = Cathepsin D FRET assay, read-out: CatD IC50
[4] = average IC50, in vitro enzymatic BACE FRET assay
[5] = Abeta 40 in CSF of the rat, read-out: % reduction of rat CSF levels at 10 pmk
[6] = Abeta 40 in brain of the rat, read-out: % reduction of rat brain levels at 10 mpk
[7] = average IC50, HEK cell assay, Aβ 40 readout
[8] = text summary referring to data in Table 2

Sequence of Cathepsin D (Cat D) (P07339 65-412, species assumed): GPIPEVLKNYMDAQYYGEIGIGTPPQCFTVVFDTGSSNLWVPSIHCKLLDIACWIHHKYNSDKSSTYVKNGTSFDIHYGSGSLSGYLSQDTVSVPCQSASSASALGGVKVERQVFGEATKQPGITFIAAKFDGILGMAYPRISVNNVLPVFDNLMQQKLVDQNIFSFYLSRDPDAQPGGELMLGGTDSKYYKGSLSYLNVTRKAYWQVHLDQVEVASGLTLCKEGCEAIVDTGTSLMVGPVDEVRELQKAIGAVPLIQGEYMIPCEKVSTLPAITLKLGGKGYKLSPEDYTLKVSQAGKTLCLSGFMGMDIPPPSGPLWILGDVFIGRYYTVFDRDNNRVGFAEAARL

Row | IC50 (Cathepsin D (Cat D); [3]) [µM] | IC50 [1, 4] [µM] | IC50 [2, 7] [µM] | IC50 (Cathepsin D (Cat D); [8]) [µM] | IC50 (Cathepsin D (Cat D); read-out: CatD IC50) [µM] | IC50 ([1]; average IC50) [µM] | IC50 ([2]; HEK cells, average IC50) [µM] | IC50 ([2]; HEK cell, average IC50) [µM] | SMILES | inhibition in vivo at 10 mg/kg (Abeta 40; [5]) [%] | inhibition in vivo at 10 mg/kg (Abeta 40; [6]) [%]
1 | 1020 | 0.019 | 0.007 | – | – | – | – | – | CC1(C)C[C@@H]2[C@](C)(N=C(N)C(C)(C)S2(=O)=O)c2cc(NC(=O)c3ncc(C(F)(F)F)cc3Cl)ccc2O1 [Example 127, N-((4aR,11bR)-2-amino-3,3,6,6,11b-pentamethyl-4,4-dioxido-4a,5,6,11b-tetrahydro-3H-[1]benzoxepino[4,5-b][1,4]thiazin-10-yl)-3-chloro-5-(trifluoromethyl)-2-pyridinecarboxamide] | 37 | 15
2 | 1140 | 0.003 | 0.002 | > 1200 | – | – | – | – | C[C@H]1C[C@@H]2[C@](C)(N=C(N)C(C)(C)S2(=O)=O)c2cc(NC(=O)c3ccc(C#N)cn3)ccc2O1 [Example 86, N-((4aR,6S,11bR)-2-amino-3,3,6,11b-tetramethyl-4,4-dioxido-4a,5,6,11b-tetrahydro-3H-[1]benzoxepino[4,5-b][1,4]thiazin-10-yl)-5-cyano-2-pyridinecarboxamide] | 79 | 79
3 | 610 | 0.002 | 0.002 | – | – | – | – | – | C#CCOc1cnc2c(Nc3ccc4c(c3)[C@@]3(C)N=C(N)C(C)(C)S(=O)(=O)[C@@H]3C[C@H](C)O4)nccc2n1 [Example 140, (4aR,6S,11bR)-3,3,6,11b-tetramethyl-N^~10^~-(2-(2-propyn-1-yloxy)pyrido[3,4-b]pyrazin-5-yl)-4a,5,6,11b-tetrahydro-3H-[1]benzoxepino[4,5-b][1,4]thiazine-2,10-diamine 4,4-dioxide] | 71 | 72
4 | – | – | – | – | > 400 | 0.005 | 0.007 | – | COc1cnc(C(=O)Nc2ccc3c(c2)[C@@]2(C)N=C(N)C(C)(C)S(=O)(=O)[C@@H]2CCO3)c(Cl)c1 [Example 173, N-((4aR,11bR)-2-amino-3,3,11b-trimethyl-4,4-dioxido-4a,5,6,11b-tetrahydro-3H-[1]benzoxepino[4,5-b][1,4]thiazin-10-yl)-3-chloro-5-methoxy-2-pyridinecarboxamide] | – | –
5 | 593 | 0.008 | 0.003 | – | – | – | – | – | CC1(C)C[C@@H]2[C@](C)(N=C(N)C(C)(C)S2(=O)=O)c2cc(NC(=O)c3ncc(Cl)cc3Cl)ccc2O1 [Example 128, N-((4aR,11bR)-2-amino-3,3,6,6,11b-pentamethyl-4,4-dioxido-4a,5,6,11b-tetrahydro-3H-[1]benzoxepino[4,5-b][1,4]thiazin-10-yl)-3,5-dichloro-2-pyridinecarboxamide] | – | –
6 | > 400 | 0.013 | 0.021 | – | – | – | – | – | C[C@H]1C[C@@H]2[C@](CF)(N=C(N)C(C)(C)S2(=O)=O)c2cc(Nc3nccc4cc(C#N)cnc34)ccc2O1 [Example 110, 8-(((4aR,6S,11bS)-2-amino-11b-(fluoromethyl)-3,3,6-trimethyl-4,4-dioxido-4a,5,6,11b-tetrahydro-3H-[1]benzoxepino[4,5-b][1,4]thiazin-10-yl)amino)-1,7-naphthyridine-3-carbonitrile] | – | –
7 | – | – | – | – | 217 | 0.005 | – | 0.008 | Cc1cc(Cl)cnc1C(=O)Nc1ccc2c(c1)[C@@]1(C)N=C(N)C(C)(C)S(=O)(=O)[C@@H]1CCC2 [Example 11, N-((4aR,11bR)-2-amino-3,3,11b-trimethyl-4,4-dioxido-3,4a,5,6,7,11b-hexahydrobenzo[3,4]cyclohepta[1,2-b][1,4]thiazin-10-yl)-5-chloro-3-methyl-2-pyridinecarboxamide] | – | –
8 | – | – | – | > 1200 | 2920 | 0.022 | – | 0.115 | COc1cnc(C(=O)Nc2ccc3c(c2)[C@@]2(C)N=C(N)C(C)(C)S(=O)(=O)[C@]2(F)CCO3)cn1 [Example 67, N-((4aR,11bR)-2-amino-4a-fluoro-3,3,11b-trimethyl-4,4-dioxido-4a,5,6,11b-tetrahydro-3H-[1]benzoxepino[4,5-b][1,4]thiazin-10-yl)-5-methoxy-2-pyrazinecarboxamide] | – | –
9 | 248 | 0.014 | 0.061 | – | – | – | – | – | Cc1cc(OC(F)F)cnc1C(=O)Nc1ccc2c(c1)[C@@]1(C)N=C(N)C(C)(C)S(=O)(=O)[C@]1(F)CCO2 [Example 95, N-((4aR,11bR)-2-amino-4a-fluoro-3,3,11b-trimethyl-4,4-dioxido-4a,5,6,11b-tetrahydro-3H-[1]benzoxepino[4,5-b][1,4]thiazin-10-yl)-5-(difluoromethoxy)-3-methyl-2-pyridinecarboxamide] | – | –
10 | 388 | 0.013 | 0.018 | – | – | – | – | – | COc1cnc(C(=O)Nc2ccc3c(c2)[C@@]2(CF)N=C(N)C(C)(C)S(=O)(=O)[C@H]2C[C@H](C)O3)cn1 [Example 108, N-((4aS,6S,11bS)-2-amino-11b-(fluoromethyl)-3,3,6-trimethyl-4,4-dioxido-4a,5,6,11b-tetrahydro-3H-[1]benzoxepino[4,5-b][1,4]thiazin-10-yl)-5-methoxy-2-pyrazinecarboxamide] | – | –
11 | 4100 | 0.019 | 0.033 | – | – | – | – | – | CC1(C)C(N)=N[C@]2(CF)c3cc(NC(=O)c4ccc(OC(F)F)cn4)ccc3OCC[C@H]2S1(=O)=O [Example 123, N-((4aR,11bS)-2-amino-11b-(fluoromethyl)-3,3-dimethyl-4,4-dioxido-4a,5,6,11b-tetrahydro-3H-[1]benzoxepino[4,5-b][1,4]thiazin-10-yl)-5-(difluoromethoxy)-2-pyridinecarboxamide] | – | –
12 | – | – | – | – | > 400 | 0.049 | – | 0.023 | Cc1cc(C(F)F)cnc1C(=O)Nc1ccc2c(c1)[C@@]1(C)N=C(N)C(C)(C)S(=O)(=O)[C@H]1CCC2 [Example 35, N-((4aS,11bR)-2-amino-3,3,11b-trimethyl-4,4-dioxido-3,4a,5,6,7,11b-hexahydrobenzo[3,4]cyclohepta[1,2-b][1,4]thiazin-10-yl)-5-(difluoromethyl)-3-methyl-2-pyridinecarboxamide] | – | –
13 | – | – | – | > 1200 | 1460 | 0.002 | – | 0.0007 | Cc1cc(C#N)cnc1C(=O)Nc1ccc2c(c1)[C@@]1(C)N=C(N)C(C)(C)S(=O)(=O)[C@@H]1C[C@H](C)O2 [Example 57, N-((4aR,6S,11bR)-2-amino-3,3,6,11b-tetramethyl-4,4-dioxido-4a,5,6,11b-tetrahydro-3H-[1]benzoxepino[4,5-b][1,4]thiazin-10-yl)-5-cyano-3-methyl-2-pyridinecarboxamide] | – | –

— patent US9309263B2, “Fused multi-cyclic sulfone compounds as inhibitors of beta-secretase and methods of use thereof” (AMGEN INC., priority 2013, dated 2016)
